The values that follow come from PMC5238392, “Origin of anti-tumor activity of the cysteine-containing GO peptides and further optimization of their cytotoxic properties” (Scientific Reports, 2017).

Where two headings read alike, the source gives them in different places.

Test [1] concerns primary culture of human dermal fibroblasts (DF). Briefly: MTS cell viability assay, dermal fibroblasts.
Experimental: As a next step, we used MTS assay[27] to examine the effect of GO peptides on the viability of the four described cell cultures as a function of different treatment schemes. […] This treatment regimen is labeled 4 × 5 underneath the graph. Alternatively, we introduced 5 μM of peptide daily while exchanging the medium (denoted 4/5). Unlike the previous protocol, it avoids potential build-up of the peptide in the medium.
The treatment protocols are: 4 × 5 – four daily doses of 5 μM delivered without exchanging the growth medium; 4/5 – four daily doses of 5 μM delivered with exchanged growth medium; 1 × 5, 1 × 10, 1 × 15, and 1 × 20 – a single dose of 5, 10, 15, or 20 μM, respectively. MTS reagent was added to the wells 96 h after the first (and sometimes the only) application of the peptide and the optical density at 492 nm was measured to determine the fraction of the surviving cells.
As a next step, we set out to test the cytotoxic effect of these peptides on the normal cells.
Cell survival was measured using CellTiter 96 AQueous One Solution Cell Proliferation Assay (MTS test, Promega, USA). Cells have been seeded in a 96-well flat-bottom plate in 100 μl of culture medium (10^3 cells/well for A549, HT-1080, dermal fibroblasts and eMSC or 5 × 10^3 cells/well for ZR-75-1) and allowed to attach for 24 h. The starting amount of cells was chosen to account for their growth rate and degree of spreading such as to avoid excessive dilution in the beginning of the experiment or control cell overgrowth toward the end. After 24 h, 10 μl of peptide stock solution or PBS (control) were added to the wells. After 96 h, 20 μl of the MTS-reagent were added to each well and 1–2 h later optical density was measured at the wavelength 492 nm using the 96-well plate reader (Titertek Multiskan, Labsystems, Finland). All experiments were conducted in duplicate or triplicate.
Test [2] concerns human fibrosarcoma cell line HT-1080. The class given is cell-based. The following applies: HT-1080.
The test system of a further test is ZR-75-1. Nature of the test: Rhodamine 123 mitochondrial membrane potential, ZR-75-1. It counts as cell-based, human. The following applies: 30 min after application, same scheme as H2DCFDA/DCFDA measurements. As for the experimental part:
Finally, the same experimental scheme as described above for H2DCFDA/DCFDA measurements was also used with Rhodamine 123. […] The same observation has been made for ZR-75-1.
The cells were seeded into 35-mm Nunc culture dishes (Thermo Scientific, USA) at 1.2 × 10^5 cells per dish and allowed to attach for 24 h. To monitor intracellular ROS in a time-dependent manner, the cells were incubated for 30 min with 10 μM of carboxy-H2DCFDA (Invitrogen, USA), then harvested with trypsin-EDTA and suspended in a fresh medium. After that GO-203 was added directly to the suspension and cell fluorescence was measured by flow cytometry at multiple time points during the following 2 hours. The same procedure was used for mitochondria-specific fluorescent dye Rhodamine 123 (Thermo Fisher Scientific, USA), which was added to a concentration of 5 μM. The complementary side scatter measurements were conducted using 488 nm laser light. In another series of experiments, we have used the related indicator of oxidative stress, H2DCFDA (Invitrogen, USA). The experiment started by adding GO-203 to the cell growth medium; then 10 min later 5 μM of H2DCFDA has been added. After 20 min incubations with H2DCFDA, the cells were harvested with trypsin-EDTA and suspended in a fresh medium. Cell fluorescence was then immediately measured by flow cytometry. […]

Test [3] concerns human lung carcinoma cell line A549. Briefly: MTS cell viability assay, A549. It counts as cell-based. As for the experimental part:
All experiments were conducted in duplicate or triplicate.
In general terms: Tetrazolium dyes change colour on reduction, which living cells bring about.

Setting [4] is: 1 × 5: single dose of 5 μM, 96 h.
Setting [5] is: 4/5: four daily doses of 5 μM with exchanged growth medium, 96 h.

As for “[R]9CQCRRKN [GO-203, in clinical trials]”, the “Cell viability (MTS)” value in test [1] (dermal fibroblasts, 1 × 5: single dose of 5 μM, 96 h) is “essentially inconsequential”; in test [1] (dermal fibroblasts, 4/5: four daily doses of 5 μM with exchanged growth medium, 96 h), “inefficient”; in test [1] (dermal fibroblasts, 4 × 5: four daily doses of 5 μM without exchanging growth medium, OD 492 nm 96 h after first application), “essentially complete cell death”; in test [1] (skin (dermal) fibroblasts, 1 × 10: single dose of 10 μM, 96 h), “nearly wipes out”; in test [2] (setting [4]), “essentially inconsequential”; in test [2] (1 × 10: single dose of 10 μM, 96 h), “nearly wipes out”. Further, the “Cell viability (MTS)” value in test [2] (setting [5]) is on record as “inefficient”; in test [2] (4 × 5: four daily doses of 5 μM without exchanging growth medium, OD 492 nm 96 h after first application, duplicate or triplicate) it was “essentially complete cell death”; in test [3] (setting [4]), “essentially inconsequential”; in test [3] (1 × 20: single dose of 20 μM, 96 h), “substantially cytotoxic”; in test [3] (setting [5]), “inefficient”; in test [3] (4 × 5: four daily doses of 5 μM without exchanging growth medium, OD 492 nm 96 h after first application), “considerable damage”. Moreover, the “Mitochondrial membrane potential (Rhodamine 123)” value with ZR-75-1 is “fully maintained”.
